Entries after “also recorded” stand apart in the source; their conditions may differ. Positions of bridges follow the written chain, without caps; N, C: chain ends. No end group written: not given here.
How the values were obtained:
Cav2.2 N-type = assay: Ca2+ current in HEK-293T cells expressing Cav2.2; type: cell-based; conditions: Cas 300 nM (n=11/N=3) and 1 µM (n=9/N=3); holding -90 mV, step +20 mV
Description: (§1) HEK-293T (RRID:CVCL_2737) were obtained from the European Collection of Authenticated Cell Cultures (ECACC 96121229). The identity of HEK-293T has been confirmed by STR profiling and the cells have been eradicated from mycoplasma at ECACC. We routinely tested the cells for the absence of the mycoplasma contamination. Cells were cultivated at 37 °C in DMEM supplemented with GlutaMax, 10% fetal bovine serum and 1% penicillin/streptomycin (Invitrogen, Fisher Scientific, France). […]
(§2) Macroscopic currents in HEK-293T cells were recorded at room temperature using an Axopatch 200B or Multiclamp 700B patchclamp amplifier (Molecular Devices, Sunnyvale CA). […]
(§3) In all experiments of cellular electrophysiology, we employed synthetized analog of Cas, commercially available at Latoxan (ID: L8109). […] Its measured molecular mass (7036.26 Da average) was in accordance with the mass calculated from sequence data (7036.22 Da). […]
(§4) n=10/N=3) channels. Peak current density wa s recorded starting f rom a holding potential of -80mV using an activating voltage step at -30mV for Cav3.1, f ro m a holding potential of -90mV using an activating voltage step at +20mV for Cav2.2 and f rom a holding potential of -80mV using an activating voltage step at 0mV for Cav2.1. Exam ples of recorded traces are reported. […]

[1] = system: isolated perfused hearts from mice; assay: Whole heart contractility and heart rate, Langendorff perfused mouse heart; conditions: native Cas 100 nM, n=5
Description: Hearts were isolated from adult male mice anaesthetized with a first intraperitoneal injection of a mixture comprising ketamine (100 mg/kg) and xylazine (10 mg/kg), and a second one of sodium pentobarbital (45 mg/kg; Ceva Santé Animale, France). An intraperitoneal injection of heparin (7500IU/kg; Sanofi Aventis, France) was administered in order to avoid thrombus formation. A thoracotomy was performed and beating hearts were quickly removed and excised into ice-cold modified Krebs-Henseleit buffer containing (mM): NaCl 116; KCl 5; MgSO4 1.1; NaH2P0_4 0.35; NaHCO3 27; CaC1_2 1.8 and glucose 10. Buffer was gassed with 95% O2 and 5% CO2, giving a pH of 7.4 at 37 °C. Before use, the buffer was initially passed through a 0.2 µm filter (Sarstedt, USA). The aorta was cannulated under magnification and hearts were quickly mounted and perfused on the Langendorff perfusion system (Isolated heart system, EMKA Technologies, France). The coronary circulation was perfused at a constant pressure (70 mmHg) over a 1 to 4 ml/min flow range with modified Krebs-Henseleit buffer. During the stabilization phase, the heart was continuously perfused with modified Krebs-Henseleit and the electrocardiogram (ECG) was recorded through Ag/AgCl electrodes positioned on the right atrium and near the apex. Heart temperature was of 37 °C as continuously assessed by a probe positioned on the base of the heart and recorded by using a TH-5 monitoring thermometer (Phymep, USA). LV pressure was continuously measured by a home-made balloon inserted into the LV cavity by the left atrium and connected to the EMKA amplifier. After 20 min of stabilization (baseline), 100 nM Cas was perfused into the heart for 7 min. Then, the modified Krebs-Henseleit buffer was perfused for 1 h allowing to wash the effects of the Cas toxin. During the whole ex vivo protocol, the left ventricular pressure signals were continuously digitized at […] and recorded using an IOX data acquisition system (EMKA Technologies, France). Data were analyzed using ecgAUTOv3.3.3.12 (EMKA technologies) and MATLAB-R2021b (The MathWorks) custom-made script
In all experiments of cellular electrophysiology, we employed synthetized analog of Cas, commercially available at Latoxan (ID: L8109). The native peptide was purified from the venom of Dendroaspis polylepis purchased from Latoxan, as previoulsly described. The pure peptide was obtained after gel filtration, cation exchange and C18 reversed phase chromatography. Its measured molecular mass (7036.26 Da average) was in accordance with the mass calculated from sequence data (7036.22 Da).

Cav3.1 T-type = assay: Ca2+ current in HEK-293T cells expressing Cav3.1; type: cell-based; conditions: Cas 300 nM (n=13/N=3) and 1 µM (n=10/N=3); holding -80 mV, step -30 mV
Description: as §1, §2, §3, §4

## RICYIHKASLPRATKTCVENTCYKMFIRTQREYISERGCGCPTAMWPYQTECCKGDRCNK (disulfide 3-22, 17-39, 41-52, 53-58 (inferred)) [Cas, calciseptine]
Cav2.2 N-type
  effect on Cav2.2 current: failed to detect inhibitory effect; also recorded: had no effect
[1]
  episodes of arrhythmia: did not observe episodes of arrhythmia
[1]; perfused 7 min, 37 °C, before 51 ± 3 mmHg, mean ± SEM
  left ventricular (LV) contraction amplitude: 9 ± 2 mmHg
[1]; before 1.7 ± 0.2, mean ± SEM
  contraction velocity (dP/dt max): 0.4 ± 0.1 mmHg/ms
[1]; before 8 ± 2 mmHg, mean ± SEM
  baseline diastolic pressure: 8 ± 3 mmHg
[1]; before 10 ± 1 ms, not affected, mean ± SEM
  relaxation time constant (Ƭ): 13 ± 2 ms
[1]; before 54 ± 1 ms, not affected, mean ± SEM
  time-to-peak interval (time to maximal pressure): 50 ± 3 ms
[1]; before 273 ± 17 ms, p > 0.05, mean ± SEM
  averaged inter-beat (RR) interval: 271 ± 17 ms
[1]; before −1.2 ± 0.1, mean ± SEM
  relaxation velocity (dP/dt min): −0.1 ± 0.1 mmHg/ms
Cav3.1 T-type
  effect on Cav3.1 current: failed to detect inhibitory effect; also recorded: had no effect
